Experiments:
[1] = biological target: T1, recombinant MDM2 protein (Homo sapiens (Human), UniProt Q00987); settings: competitive binding vs fluorescently labeled peptide probe, 10% DMSO, pH 7.2; read-out: Fluorescence Polarization Assay KI
Protocol: The compounds binding to MDM2 were determined by a quantitative fluorescence polarization binding assay using a recombinant MDM2 protein and fluorescently labeled peptide probes using a BioTek Cytation 5 machine. Compounds were tested in 10% DMSO, 100 mM potassium phosphate pH 7.2, 100 ug/ml bovine γ-globulin, 0.02% (w/v) sodium azide and 0.01% (v/v) triton X-100. KI values of tested compounds were determined in a dose-dependent competitive binding experiment by fitting the sigmoidal dose-dependent FP increases as a function of […] concentrations using Graphpad Prism software.

[2] = biological target: T1, recombinant MDM2 protein; assay: biochemical; assay type: binding
Protocol: Qualitative evaluation of compound binding to MDM2 was determined using a fluorescence-based thermal shift assay with a Roche LC480 lightcycler. Each experiment was performed in ˜30 mins with ramping up of temperature to monitor thermal denaturation of MDM2. Compounds at 0.16 mM, 0.08 mM and 0.04 mM were added to recombinant MDM2 protein and SYPRO orange dye in 5% DMSO 50 mM Bis-Tris Propane pH 8.0 and 100 mM NaCl. Positive thermal shift was indicative of compound binding to the proteins of interest.

T1 sequence (Q00987 whole entry): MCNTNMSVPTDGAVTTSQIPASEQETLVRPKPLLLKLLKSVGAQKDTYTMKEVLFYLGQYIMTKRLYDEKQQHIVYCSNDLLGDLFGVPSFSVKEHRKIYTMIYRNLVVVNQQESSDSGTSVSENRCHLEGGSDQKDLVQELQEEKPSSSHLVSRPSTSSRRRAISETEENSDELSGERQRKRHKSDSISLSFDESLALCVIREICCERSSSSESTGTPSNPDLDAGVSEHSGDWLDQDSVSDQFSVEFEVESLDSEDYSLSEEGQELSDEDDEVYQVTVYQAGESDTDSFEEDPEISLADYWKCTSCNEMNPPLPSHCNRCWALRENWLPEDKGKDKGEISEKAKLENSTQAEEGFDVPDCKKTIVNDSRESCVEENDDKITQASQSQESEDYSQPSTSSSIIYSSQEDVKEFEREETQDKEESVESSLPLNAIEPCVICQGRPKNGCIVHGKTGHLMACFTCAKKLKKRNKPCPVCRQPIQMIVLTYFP

- Ki [1]: 118 µM
- ΔTm at 40 µM ([2]; read-out: Thermal Shift 0.04 mM): 0 °C
- ΔTm at 80 µM ([2]; read-out: Thermal Shift 0.08 mM): 0 °C
- ΔTm at 160 µM ([2]; read-out: Thermal Shift 0.16 mM): 0.6 °C
SMILES: CC(=O)Nc1cc(C(F)(F)F)cnc1N1CCN(CC(=O)O)CC1c1ccc(Cl)cc1 (stereo not shown) [Compound 2, 2-(4-(3-acetamido-5-(trifluoromethyl)pyridin-2-yl)-3-(4-chlorophenyl)piperazin-1-yl)acetic acid]

Source: patent US11504381B1 (priority 2021, dated 2022)
